# Measurements taken from US20240108641A1, “COMPOSITIONS FOR ORAL ADMINISTRATION OF ZOLEDRONIC ACID OR RELATED COMPOUNDS FOR TREATING DISEASE” (ANTECIP BIOVENTURES II LLC, priority 2012, published 2024).
# Tests used:
# [1] = in vivo; conditions: dog, po, 150 mg
# Procedure: Tablets were manufactured containing either pure zoledronic acid or the disodium salt of zoledronic acid (disodium zoledronate tetrahydrate). Both types of tablets contained 50 mg of zoledronic acid equivalent per tablet. Identical excipients were used in both types of tablets, with amounts adjusted to account for the difference in molecular weights between the acid and the disodium salt.
# Beagle dogs were orally administered tablets containing 150 mg zoledronic acid equivalent either in the form of disodium zoledronate (Group 1) or pure zoledronic acid (Group 2). Each animal was given three 50 mg equivalent tablets (150 mg total), which were administered together. The animal's oral cavity was wetted with water before placing the tablets on the back of the animal's tongue. Animals were fasted before and after dosing. Animals were 6 to 9 months of age and weighed 6 to 10 kg on the day of dosing. There were three dogs per group.
# Serial blood samples were collected from each animal by venipuncture of the jugular vein at various points after dosing for measurement of plasma concentrations of zoledronic acid. Blood samples were collected into chilled tubes containing K2EDTA as the anticoagulant. Samples were then centrifuged at approximately 3000 rpm at +4° C. for 10 minutes for plasma derivation. Plasma concentrations of zoledronic acid were measured using an LC/MS/MS method.
# [2] = format: physicochemical; conditions: pH 5.5
# Procedure: One gram of the test compound was measured into a beaker. […] The procedure was continued until complete dissolution was achieved. […] The procedure was performed for each compound.
compound,measurement,setting,value
O.O.O.O.O=P([O-])(O)C(O)(Cn1ccnc1)P(=O)([O-])O.[Na+].[Na+] [disodium zoledronate tetrahydrate],average AUC0-∞,[1],4073 ng·h/mL
same,aqueous solubility relative to zoledronic acid,[2],approximately 50 times
